Assay results taken from patent US12083101B2, “Biaryl derivatives as YAP/TAZ-TEAD protein-protein interaction inhibitors” (Novartis AG, priority 2020, dated 2024).
Read-outs that look alike come from different tables or passages of the source.

What was measured:
MKN-45/Ubc-luc cells [1] = test: Reporter gene specificity control (Ubc-luciferase), MKN-45
[2] = test system: NCI-H2052 Tet-On shYAP_2371 pLenti6 MCAT_Luc cells; test: Proliferation assay (resazurin), NCI-H2052; assay type: cell-based; conditions: 72 hours incubation
How it was run: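 The NCI-H2052 line carries a Tet-inducible shRNA against the YAP1 3′UTR and an MCAT luciferase reporter. The day after seeding, it received eleven 2-fold compound dilutions at 0.1% DMSO, and viability was read by resazurin fluorescence.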

[3] = target: Avi-humanTEAD4 217-434 / Cy5 labeled humanYAP 60-100 (Homo sapiens (Human), UniProt Q15561); test: TR-FRET YAP-TEAD4 in-vitro biochemical assay; assay type: binding; conditions: 1 nM Avi-humanTEAD4 217-434, 20 nM Cy5-humanYAP 60-100, 1 h room temperature
Avi-humanTEAD4 217-434 / Cy5 labeled humanYAP 60-100, sequence (Q15561 217-434): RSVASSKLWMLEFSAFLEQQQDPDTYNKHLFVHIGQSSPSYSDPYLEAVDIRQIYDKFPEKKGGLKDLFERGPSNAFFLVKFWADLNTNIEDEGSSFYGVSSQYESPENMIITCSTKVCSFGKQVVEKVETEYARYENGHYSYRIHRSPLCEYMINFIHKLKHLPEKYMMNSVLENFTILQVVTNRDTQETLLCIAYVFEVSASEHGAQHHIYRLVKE

[4] = test system: NCI-H2052 Tet-On shYAP_2371 pLenti6 MCAT_Luc cells (YAP-dependent transcription); test: YAP reporter gene activity assay (MCAT-luciferase), NCI-H2052; assay type: cell-based; conditions: 24 hours incubation, BrightGlo luminescence
How it was run: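 NCI-H2052 cells carrying an MCAT-luciferase reporter and a tetracycline-inducible YAP 3′UTR shRNA were treated with eleven 2-fold compound dilutions (0.1% DMSO) for 24 h at 37 °C. BrightGlo luminescence was background-subtracted and expressed as % of DMSO control. IC50 came from a four-parameter fit; MKN-45/Ubc-luc cells served as the specificity counterscreen.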

MKN-45/Ubc-luc cells [5] = test: Proliferation assay (resazurin), MKN-45; assay type: cell-based; conditions: 72 hours incubation
[6] = Homo sapiens, MKN-45, 24 h, read-out: Reporter gene assay MKN-45 IC50 [μM], MKN-45/Ubc-luc cells (YAP deleted, specificity control), 24 hours incubation

IC50 (MKN-45/Ubc-luc cells [1]; [6]) [µM] | GI50 ([2]; Homo sapiens, NCI-H2052, 72 h) [nM] | IC50 [3] [nM] | IC50 ([4]; Homo sapiens, NCI-H2052, 24 h) [nM] | GI50 (MKN-45/Ubc-luc cells [5]; Homo sapiens) [nM] | IC50 (MKN-45/Ubc-luc cells [1]; read-out: Reporter gene assay MKN-45 IC50, MKN-45/Ubc-luc cells (YAP deleted, specificity control), 24 hours incubation) [µM] | GI50 [2] [nM] | IC50 [4] [nM] | GI50 (MKN-45/Ubc-luc cells [5]) [nM] | SMILES
> 20 | 58 | 5 | 46 | > 20000 |  |  |  |  | CNC[C@]1(c2ccccc2)Oc2cc(F)c(Cl)c(-c3c(C(=O)NC)cnc(OCCO)c3F)c2[C@@H]1C (atropisomer, axis not shown) [Example 145, 4-((2S,3S,4S)-5-Chloro-6-fluoro-3-methyl-2-((methylamino)methyl)-2-phenyl-2,3-dihydrobenzofuran-4-yl)-5-fluoro-6-(2-hydroxyethoxy)-N-methylnicotinamide]
> 10 | 23 | 3 | 25 | > 10000 |  |  |  |  | CNC[C@]1(c2ccccc2)Oc2cc(F)c(Cl)c(-c3c(C(N)=O)ccc(OC)c3F)c2[C@@H]1COC (atropisomer, axis not shown) [Example 146, 2-((2S,3R,4S)-5-Chloro-6-fluoro-3-(methoxymethyl)-2-((methylamino)methyl)-2-phenyl-2,3-dihydrobenzofuran-4-yl)-3-fluoro-4-methoxybenzamide]
> 3.3 | 5 | 1 | 11 | > 3300 |  |  |  |  | CNC[C@]1(c2ccccc2)Oc2cc(F)c(Cl)c(-c3c(C(N)=O)ccc(OC)c3F)c2[C@@H]1CO (atropisomer, axis not shown) [Example 147, 2-((2S,3R,4S)-5-Chloro-6-fluoro-3-(hydroxymethyl)-2-((methylamino)methyl)-2-phenyl-2,3-dihydrobenzofuran-4-yl)-3-fluoro-4-methoxybenzamide]
> 20 | 53 | 4 | 54 | > 20000 |  |  |  |  | C[C@H]1c2c(cc(F)c(Cl)c2-c2c(C(N)=O)ccc(OCC(C)(C)O)c2F)O[C@]1(CN[C@H]1CC[C@](C)(O)CC1)c1ccccc1 (atropisomer, axis not shown) [Example 148, 2-((2S,3S,4S)-5-Chloro-6-fluoro-2-((((trans)-4-hydroxy-4-methylcyclohexyl)amino)methyl)-3-methyl-2-phenyl-2,3-dihydrobenzofuran-4-yl)-3-fluoro-4-(2-hydroxy-2-methylpropoxy)benzamide]
> 10 | 22 | 2 | 15 | > 10000 |  |  |  |  | NC(=O)c1ccc(OCCO)c(F)c1-c1c(Cl)c(F)cc2c1C[C@](c1ccccc1)([C@@H]1CCCN1)O2 (atropisomer, axis not shown) [Example 151, 2-((2S,4S)-5-Chloro-6-fluoro-2-phenyl-2-((S)-pyrrolidin-2-yl)-2,3-dihydrobenzofuran-4-yl)-3-fluoro-4-(2-hydroxyethoxy)benzamide]
> 10 | 25 | 2 | 36 | > 10000 |  |  |  |  | C[C@H](O)COc1ccc(C(N)=O)c(-c2c(Cl)c(F)cc3c2C[C@](c2ccccc2)([C@@H]2CCCN2)O3)c1F (atropisomer, axis not shown) [Example 152, 2-((2S,4S)-5-Chloro-6-fluoro-2-phenyl-2-((S)-pyrrolidin-2-yl)-2,3-dihydrobenzofuran-4-yl)-3-fluoro-4-((S)-2-hydroxypropoxy)benzamide]
> 10 | 104 | < 1 | 24 | > 10000 |  |  |  |  | CNC(=O)c1ccc(OCCO)c(F)c1-c1c(Cl)c(F)cc2c1C[C@](c1ccccc1)([C@@H]1CCCN1)O2 (atropisomer, axis not shown) [Example 153, 2-((2S,4S)-5-Chloro-6-fluoro-2-phenyl-2-((S)-pyrrolidin-2-yl)-2,3-dihydrobenzofuran-4-yl)-3-fluoro-4-(2-hydroxyethoxy)-N-methylbenzamide]
> 10 | 59 | 8 | 77 | > 10000 |  |  |  |  | CNC(=O)c1ccc(OC[C@H](C)O)c(F)c1-c1c(Cl)c(F)cc2c1C[C@](c1ccccc1)([C@@H]1CCCN1)O2 (atropisomer, axis not shown) [Example 154, 2-((2S,4S)-5-Chloro-6-fluoro-2-phenyl-2-((S)-pyrrolidin-2-yl)-2,3-dihydrobenzofuran-4-yl)-3-fluoro-4-((S)-2-hydroxypropoxy)-N-methylbenzamide]
> 10 | 167 | 29 | 174 | > 10000 |  |  |  |  | CNC(=O)c1ccc(OCCO)c(F)c1-c1c(Cl)c(F)cc2c1C[C@](c1ccccc1)([C@@H]1CCCCN1)O2 (atropisomer, axis not shown) [Example 161, 2-((2S,4S)-5-Chloro-6-fluoro-2-phenyl-2-((S)-piperidin-2-yl)-2,3-dihydrobenzofuran-4-yl)-3-fluoro-4-(2-hydroxyethoxy)-N-methylbenzamide]
> 8 | 23 | 1 | 12 | > 8000 |  |  |  |  | NC(=O)c1ccc(OCCO)c(F)c1-c1c(Cl)c(F)cc2c1C[C@](c1ccccc1)([C@@H]1CCCN1)N2 (atropisomer, axis not shown) [Example 170, 2-((2S,4S)-5-Chloro-6-fluoro-2-phenyl-2-((S)-pyrrolidin-2-yl)indolin-4-yl)-3-fluoro-4-(2-hydroxyethoxy)benzamide]
15.5 | 73 | 2 | 116 | 13000 |  |  |  |  | COc1ccc(C(N)=O)c(-c2c(Cl)c(F)cc3c2C[C@](c2ccccc2)([C@@H]2CCCN2)N3)c1F (atropisomer, axis not shown) [Example 171, 2-((2S,4S)-5-Chloro-6-fluoro-2-phenyl-2-((S)-pyrrolidin-2-yl)indolin-4-yl)-3-fluoro-4-methoxybenzamide]
> 20 | 104 | 15 | 144 | > 20000 |  |  |  |  | CNC(=O)c1ccc(OC[C@H](C)O)c(F)c1-c1c(Cl)c(F)cc2c1C[C@](c1ccccc1)([C@@H]1CCCN1)N2 (atropisomer, axis not shown) [Example 172, 2-((2S,4S)-5-Chloro-6-fluoro-2-phenyl-2-((S)-pyrrolidin-2-yl)indolin-4-yl)-3-fluoro-4-((S)-2-hydroxypropoxy)-N-methylbenzamide]
> 20 | 158 | 14 | 187 | > 20000 |  |  |  |  | CNC(=O)c1cnc(OCCO)c(F)c1-c1c(Cl)c(F)cc2c1C[C@](c1ccccc1)([C@@H]1CCCN1)N2 (atropisomer, axis not shown) [Example 173, 4-((2S,4S)-5-Chloro-6-fluoro-2-phenyl-2-((S)-pyrrolidin-2-yl)indolin-4-yl)-5-fluoro-6-(2-hydroxyethoxy)-N-methylnicotinamide]
 |  | 1 |  |  | > 10 | 81 | 26 | > 10000 | COc1ccc(C(N)=O)c(-c2c(Cl)ccc3c2C[C@@](CN[C@H]2CC[C@H](O)CC2)(c2ccccc2)O3)c1F (relative stereo) [Example 27a, 2-((2S,4S)-5-Chloro-2-(((trans-4-hydroxycyclohexyl)amino)methyl)-2-phenyl-2,3-dihydrobenzofuran-4-yl)-3-fluoro-4-methoxybenzamide]
